Reference: patent US9504685B2, “Method for treating a pulmonary hypertension condition” (Gilead Sciences, Inc., priority 2006, dated 2016)

Test system: subjects with PAH
Experiment: Example 2 (ARIES-1) placebo-controlled Phase III trial, efficacy
Format: in vivo, human
Conditions: for Clinical worsening event: Atrial septostomy / Clinical worsening event: Death / Clinical worsening event: Escape criteria / Clinical worsening event: Hospitalization for PAH / Clinical worsening event: Lung transplantation / Clinical worsening event: Study discontinuation due to addition of PAH treatment / Clinical worsening: Total subjects with ≧1 event / subjects hospitalized for worsening right heart failure / subjects who had an event of clinical worsening: 12 weeks; for Change in 6MWD from baseline to Week 12, mean: ITT population; for geometric mean percent change in plasma BNP, decrease from baseline / geometric mean percent change in plasma ET-1, increase from baseline: Week 12
Description: The primary objective of this study was to determine the effect of ambrisentan on exercise capacity in subjects with pulmonary arterial hypertension (PAH). The secondary objectives of this study were to evaluate effects of ambrisentan on other clinical measures of PAH, as well as safety and tolerability of the study drug.
Study drug was provided in round, biconvex, oral tablets that were identical in appearance. Three strengths of active study drug containing 2.5 mg, 5 mg or 10 mg of ambrisentan were used in this study. All study drug was packaged in blister cards. Subjects were instructed to take study drug once daily (q.d.) by mouth (p.o.) in the morning, with or without food.
The maximum study duration was up to 14 weeks from the time of initial screening procedures to the final study visit (Week 12). Screening procedures were performed a maximum of 2 weeks prior to the first dose of study drug. The maximum duration of study drug treatment was 12 weeks.
Men and women, 18 years of age or older, with idiopathic PAH, PAH associated with CTD, e.g., mixed CTD, CREST syndrome, systemic sclerosis (scleroderma), overlap syndrome or systemic lupus erythematosus, or PAH associated with anorexigen use or HIV infection were enrolled in this study. Subjects were to have a documented mean PAP≧25 mmHg, PVR>3 mmHgL/min, and PCWP or LVEDP<15 mmHg. Subjects must have been able to walk a distance of at least 150 m but no more than 450 m during 2 consecutive 6MWTs to be eligible for inclusion in the study.
After a 2 week screening period, eligible subjects were stratified based on the underlying etiology of PAH (idiopathic or non-idiopathic) and were randomized to 1 of 3 treatment groups (placebo, 5 mg or 10 mg ambrisentan) in a ratio of 1:1:1. One blinded dose reduction was permitted during the 12-week treatment period in the event of study drug intolerance (e.g., 10 mg to 5 mg, 5 mg to 2.5 mg, placebo to placebo). Subjects received a daily dose of 2.5 mg ambrisentan only if they reduced from the 5 mg dose group. Subjects were assessed for efficacy and safety at monthly intervals.
Therefore, after a minimum treatment period of 4 weeks, subjects who met 2 or more of the following predefined early escape criteria may have been removed from the study: • (a) a decrease from baseline of at least 20% in 6MWD; • (b) an increase of 1 or more WHO functional class; • (c) worsening right ventricular failure (e.g., as indicated by increased jugular venous pressure, new or worsening hepatomegaly, ascites or peripheral edema); • (d) rapidly progressing cardiogenic, hepatic or renal failure; and/or • (e) refractory systolic hypotension (systolic blood pressure <85 mmHg).
The primary efficacy endpoint was change from baseline in 6MWD evaluated after 12 weeks of treatment compared to placebo.
The secondary efficacy endpoints included: • (a) time to clinical worsening of PAH, as defined by the time from randomization to the first occurrence of death, lung transplantation, hospitalization for PAH, atrial septostomy, study discontinuation due to addition of other PAH therapeutic agents, or study discontinuation due to 2 or more early escape criteria; • (b) change from baseline measured after 12 weeks of treatment compared to placebo in: • (i) WHO functional class; • (ii) SF-36® health survey physical functioning scale; • (iii) BDI immediately following exercise; and/or • (iv) an assessment of the safety and tolerability of the study drug; and • (c) change from baseline measured after 12 weeks of treatment compared to placebo in plasma levels of ET-1, BNP and cTnT. Safety Assessments
For the ITT population, subjects were considered as belonging to their randomized treatment group, regardless of the actual treatment received.
The primary efficacy endpoint was the change from baseline in 6MWD evaluated after 12 weeks of treatment compared to placebo, where the last observation was carried forward. […]

[1] = 5 mg once daily, baseline to Week 12
[2] = 10 mg once daily, baseline to Week 12

Structure (SMILES): COC(c1ccccc1)(c1ccccc1)[C@H](Oc1nc(C)cc(C)n1)C(=O)O [ambrisentan]
- placebo-adjusted improvement in mean 6MWD at Week 12 (5 mg once daily): +30.6 m
- subjects at least maintaining their baseline WHO functional class at Week 12 (5 mg once daily): 98.5%
- Clinical worsening event: Atrial septostomy (5 mg once daily): 0 (0.0) subjects (% of ITT population)
- Clinical worsening event: Death (5 mg once daily): 1 (1.5) subjects (% of ITT population)
- Clinical worsening event: Escape criteria (5 mg once daily): 0 (0.0) subjects (% of ITT population)
- Clinical worsening event: Hospitalization for PAH (5 mg once daily): 2 (3.0) subjects (% of ITT population)
- Clinical worsening event: Lung transplantation (5 mg once daily): 0 (0.0) subjects (% of ITT population)
- Clinical worsening event: Study discontinuation due to addition of PAH treatment (5 mg once daily): 0 (0.0) subjects (% of ITT population)
- Clinical worsening: Total subjects with ≧1 event (5 mg once daily): 3 (4.5) subjects (% of ITT population)
- subjects hospitalized for worsening right heart failure (5 mg once daily): 1 subjects
- subjects who had an event of clinical worsening (5 mg once daily): 3 subjects
- Change in 6MWD from baseline to Week 12, mean (5 mg once daily): +22.8 meters
- geometric mean percent change in plasma BNP, decrease from baseline (5 mg once daily): 30%
- geometric mean percent change in plasma ET-1, increase from baseline (5 mg once daily): 96%
- Change in SF-36 Bodily pain, mean (SD) [1]: −1.43 ± 13.21
- Change in SF-36 General health, mean (SD) [1]: +0.08 ± 8.45
- Change in SF-36 Mental component summary, mean (SD) [1]: +0.50 ± 10.50
- Change in SF-36 Mental health, mean (SD) [1]: +0.81 ± 9.67
- Change in SF-36 Physical component summary, mean (SD) [1]: +1.88 ± 8.68
- Change in SF-36 Physical functioning, mean (SD) [1]: +3.86 ± 7.14
- Change in SF-36 Role-emotional, mean (SD) [1]: +1.41 ± 13.95
- Change in SF-36 Role-physical, mean (SD) [1]: +4.22 ± 10.52
- Change in SF-36 Social functioning, mean (SD) [1]: +1.11 ± 13.63
- Change in SF-36 Vitality, mean (SD) [1]: +2.38 ± 10.06
- Change in WHO functional class: +1 class [1]: 1 (1.5) subjects (% of ITT population)
- Change in WHO functional class: +2 classes [1]: 0 (0.0) subjects (% of ITT population)
- Change in WHO functional class: no change [1]: 47 (70.1) subjects (% of ITT population)
- Change in WHO functional class: −1 class [1]: 18 (26.9) subjects (% of ITT population)
- Change in WHO functional class: −2 classes [1]: 1 (1.5) subjects (% of ITT population)
- placebo-adjusted improvement in mean 6MWD at Week 12 (10 mg once daily): +51.4 m
- subjects at least maintaining their baseline WHO functional class at Week 12 (10 mg once daily): 95.5%
- Clinical worsening event: Atrial septostomy (10 mg once daily): 0 (0.0) subjects (% of ITT population)
- Clinical worsening event: Death (10 mg once daily): 1 (1.5) subjects (% of ITT population)
- Clinical worsening event: Escape criteria (10 mg once daily): 2 (3.0) subjects (% of ITT population)
- Clinical worsening event: Hospitalization for PAH (10 mg once daily): 2 (3.0) subjects (% of ITT population)
- Clinical worsening event: Lung transplantation (10 mg once daily): 0 (0.0) subjects (% of ITT population)
- Clinical worsening event: Study discontinuation due to addition of PAH treatment (10 mg once daily): 1 (1.5) subjects (% of ITT population)
- Clinical worsening: Total subjects with ≧1 event (10 mg once daily): 3 (4.5) subjects (% of ITT population)
- subjects hospitalized for worsening right heart failure (10 mg once daily): 1 subjects
- subjects who had an event of clinical worsening (10 mg once daily): 3 subjects
- Change in 6MWD from baseline to Week 12, mean (10 mg once daily): +43.6 meters
- geometric mean percent change in plasma BNP, decrease from baseline (10 mg once daily): 45%
- geometric mean percent change in plasma ET-1, increase from baseline (10 mg once daily): 48%
- Change in SF-36 Bodily pain, mean (SD) [2]: +2.26 ± 12.22
- Change in SF-36 General health, mean (SD) [2]: +3.25 ± 8.81
- Change in SF-36 Mental component summary, mean (SD) [2]: +2.11 ± 13.17
- Change in SF-36 Mental health, mean (SD) [2]: +1.55 ± 12.66
- Change in SF-36 Physical component summary, mean (SD) [2]: +4.79 ± 7.90
- Change in SF-36 Physical functioning, mean (SD) [2]: +4.52 ± 7.16
- Change in SF-36 Role-emotional, mean (SD) [2]: +2.98 ± 17.37
- Change in SF-36 Role-physical, mean (SD) [2]: +6.67 ± 10.35
